Results published in patent US20070149483A1, “Methods and compounds for modulating triglyceride and vldl secretion” (priority 2003, published 2007).

Experiments:
[1] = system: McA-RH7777 cells stably expressing human apoB100; experiment: Immunofluorescent localization of apoB and Map1LC3; type: cell-based, rat; conditions: 0.4 mM, 4 h, in comparison to controls
Method: Cells were permeabilized with 1% Triton X-100 in blocking buffer (10% FBS in PBS) for 30 min and probed with primary antibodies, i.e., monoclonal antibody 1D1 (1:1000) for human apoB and polyclonal antibody against rat Map1LC3 (1:200) for 1 h. Cells were then incubated with a mixture of secondary antibodies (1:200), i.e., of goat anti-mouse IgG conjugated with Alexa Fluor™488 (green) and goat anti-rabbit IgG conjugated with Alexa Fluor™594 (red) for 1 h. The coverslips were mounted onto glass slides using SlowFade AntiFade kits (Molecular Probes) and the images were captured by an MRC-1024 laser scanning confocal imaging system. […] The secondary antibody for apoB was conjugated with Alexa Fluor™488 (green), and that for Map1LC3 was conjugated with Alexa Fluor™594 (red).

[2] = system: McA-RH7777 cells stably expressing human apoB100; experiment: Pulse-chase with subcellular fractionation: membrane-associated apoB100 trafficking; type: cell-based, rat; conditions: 20 min pulse
Method: The cells were then incubated with chase medium for 15, 30 and 45 min. At the end of each chase time, the medium was collected and subjected to cumulative rate flotation centrifugation (Wang et al., 1999) to resolve apoB100-VLDL1 (Sf>100) and apoB100-VLDL2 (Sf 20-100) from other lipoproteins (i.e. IDL, LDL and HDL). The ^35S-apoB100 in each fraction was recovered by immunoprecipitation. Also, at the end of each chase time, the radiolabeled cells were harvested in 2 ml of ice-cold homogenization buffer (10 mM Tris-HCl, pH 7.4, 250 mM sucrose, 5 mM EDTA, and serine/cysteine protease inhibitor mixture), mixed with two 100-mm dishes of unlabeled cells, homogenized by passing ten times through a ball-bearing homogenizer, and subjected to subcellular fractionation and carbonate-treatment as described below. […]
Analysis of ApoB100 Associated with Membranes and Lumenal Contents of Microsomes—Lumenal contents were separated from membranes by sodium carbonate treatment followed by centrifugation (Tran et al., 2002). The ^35S-labelled apoB100 proteins associated with the membrane and lumen were recovered by immunoprecipitation and analyzed by SDS-PAGE/fluorography as previously described (Tran et al., 2002). […]

[3] = system: McA-RH7777 cells stably expressing human apoB100; conditions: Tran et al., 2002, cited from earlier work
McA-RH777 cells = conditions: oleate-treated cells; cited from earlier work
[4] = system: McA-RH7777 cells expressing human apoB100; experiment: Pulse-chase of [35S]apoB100 with rate flotation of conditioned medium and microsomal lumen; type: cell-based, rat; conditions: 30 min pulse, end of 1-h chase
Method: Cell Culture and Fatty Acid Treatments—Transfected McA-RH7777 cells stably expressing human apoB100 (McLeod et al., 1994, J. Biol. Chem. 269, 2852-2862) were cultured in Dulbecco's modified Eagle's medium (DMEM) containing 10% fetal bovine serum (FBS), 10% horse serum and 200 μg/ml G418. Routinely, the cells were incubated with 0.4 mM fatty acids for 16-18 h in the presence of 20% FBS prior to experiments.

[5] = system: McA-RH7777 cells stably expressing human apoB100; experiment: Transmission electron microscopy morphometry of lipid/lipoprotein particles in Golgi and GAV; type: cell-based, rat; conditions: for relative occurrence of particle type in the GAV: n=221; for relative occurrence of particle type in trans-Golgi saccules 4-6+TGN/secretory vesicles: n=284
Method: The samples were processed for transmission electron microscopy as previously described (Tran et al., 2002). Single and serial thin sections (silver-gold interference colors) were visualized in a Hitachi H-7000 transmission electron microscope, and captured at a range of negative magnifications (8,000-120,000 times). Panoramic tiling was used to capture large fields. The 3D model was prepared from Golgi fields from 7 consecutive serial images (positive magnification=70,000 times), by the method previously described (Thorne-Tjomsland et al., 1998, Anat. Rec. 250, 381-396), with the following modifications. The serial fields were scanned into Adobe Photoshop 5.5 of an Imac 700 MHz G4 computer. Alignment of consecutive sections by fiducial markers was carried out prior to object-contouring and -separation. Concatenation and volume rendering were done in Synu on an SGI-OS 2, and image capture was with Photoshop on a Macintosh platform. The diameter of electron-dense particles, which represent a combination of lipoprotein particles and lipid droplets, were measured in 40 randomly selected Golgi regions from EPA-treated cells. Negative magnification was 40,000 times and positives were further magnified three times. Measurements were from positives, using a digital caliper [technical specifications in required range (0-150 mm on positive): max resolution=0.01 mm; accuracy=0.02 mm; repeatability=0.01 mm]. The precision in our system was tested by measuring the diameters of each of two electron-dense particles (20 nm and 40 nm diameter) 40 times; SD for the average converted measurements was <1 nm. Criteria for selecting Golgi, establishing cis-trans polarity, and measuring lipid/lipoprotein particles were as described (Tran et al., 2002). Lipid/lipoprotein particles were classified as membrane-associated if directly apposed to the lumenal Golgi leaflet or with a membrane diverging from this, otherwise as lumenal.

CCCCCCCC/C=C\CCCCCCCC(=O)O [Oleate, oleic acid]
autophagy (penetration of Map1LC3 staining into the apoB100-rich perinuclear area, partial co-localization with apoB100) [1]: induced autophagy | rate at which the membrane-associated [^35S]-apoB100 exited the ER ([2]; chase 0, 15, 30 and 45 min): −0.59±0.17 % of total/min | rate at which the membrane-associated [^35S]-apoB100 appeared in the distal Golgi ([2]; chase 0-45 min): 0.39±0.11 % of total/min | size of lipoprotein particles detected in oleate-treated cells [3]: 40 nm | average diameters of lipoproteins in Golgi saccules 1-6 ([3]; oleate-treated McArdle cells): 40±17 nm | share of total secreted TG carried by VLDL particles (McA-RH777 cells): > 80% | share of total secreted apoB100 carried by VLDL particles (McA-RH777 cells): < 10%

CC/C=C\C/C=C\C/C=C\C/C=C\C/C=C\CCCC(=O)O [EPA, eicosapentaenoic acid]
increase of [^35S]-apoB100 in fractions of high density (IDL and LDL) in the microsomal lumen ([4]; vs oleate): six-fold | decrease of [^35S]-apoB100 in VLDL (VLDL1 and VLDL2) in the media, as compared to oleate-treatment ([4]; 16 h pretreatment): 50% | average size of Type I particles in the cis-most Golgi saccule ([5]; EPA-treated cells): 100 nm | average size of Type V particles ([5]; EPA-treated cells): 54.5 nm | sizes of Type V particles in the Golgi ([5]; EPA-treated cells): 25-75 nm | Percent membrane association of particles ([5]; Type I, GAV): 33% | Percent membrane association of particles ([5]; Type I, Golgi saccule 1): 100% | Percent membrane association of particles ([5]; Type I, Golgi saccule 2): 84% | Percent membrane association of particles ([5]; Type I, Golgi saccule 3): 80% | Percent membrane association of particles ([5]; Type I, Golgi saccules 4-6): 73% | Percent membrane association of particles ([5]; Type I, TGN and secretory): 56% | relative occurrence of particle type in the GAV ([5]; Type I): 12% | relative occurrence of particle type in trans-Golgi saccules 4-6+TGN/secretory vesicles ([5]; Type I): 12% | Percent membrane association of particles ([5]; Type II, GAV): 25% | Percent membrane association of particles ([5]; Type II, Golgi saccule 1): 100% | Percent membrane association of particles ([5]; Type II, Golgi saccule 2): 83% | Percent membrane association of particles ([5]; Type II, Golgi saccule 3): 75% | relative occurrence of particle type in the GAV ([5]; Type II): 2% | relative occurrence of particle type in trans-Golgi saccules 4-6+TGN/secretory vesicles ([5]; Type II): 4% | Percent membrane association of particles ([5]; Type III, GAV): 46% | Percent membrane association of particles ([5]; Type III, Golgi saccule 1): 100% | Percent membrane association of particles ([5]; Type III, Golgi saccule 2): 83% | Percent membrane association of particles ([5]; Type III, Golgi saccule 3): 83% | Percent membrane association of particles ([5]; Type III, Golgi saccules 4-6): 82% | Percent membrane association of particles ([5]; Type III, TGN and secretory): 73% | relative occurrence of particle type in the GAV ([5]; Type III): 11% | relative occurrence of particle type in trans-Golgi saccules 4-6+TGN/secretory vesicles ([5]; Type III): 13% | Percent membrane association of particles ([5]; Type IV, GAV): 45% | Percent membrane association of particles ([5]; Type IV, Golgi saccules 4-6): 50% | Percent membrane association of particles ([5]; Type IV, TGN and secretory): 20% | Percent membrane association of particles ([5]; Type IV, combined Golgi saccules 1-3): 67% | relative occurrence of particle type in the GAV ([5]; Type IV): 5% | relative occurrence of particle type in trans-Golgi saccules 4-6+TGN/secretory vesicles ([5]; Type IV): 5% | Percent membrane association of particles ([5]; Type V, GAV): 42% | Percent membrane association of particles ([5]; Type V, Golgi saccule 1): 96% | Percent membrane association of particles ([5]; Type V, Golgi saccule 2): 83% | Percent membrane association of particles ([5]; Type V, Golgi saccule 3): 66% | Percent membrane association of particles ([5]; Type V, Golgi saccules 4-6): 64% | Percent membrane association of particles ([5]; Type V, TGN and secretory): 66% | relative occurrence of particle type in the GAV ([5]; Type V): 70% | relative occurrence of particle type in trans-Golgi saccules 4-6+TGN/secretory vesicles ([5]; Type V): 66%
